Assay results published in ChEMBL document CHEMBL3817750, “New hydrazones of 5-nitro-2-furaldehyde with adamantanealkanohydrazides: synthesis and in vitro trypanocidal activity” (Medchemcomm, 2016).

How the values were obtained:
Trypanosoma brucei = test: Trypanocidal activity against bloodstream form of Trypanosoma brucei 427 assessed as reduction in parasitic growth after 48 hrs by Alamar blue assay; format: functional, organism-based; settings: Trypanosoma brucei, 427, 48 h
L6 = test: Cytotoxicity against rat L6 cells after 6 days by Alamar blue assay; format: cell-based
[1] = Selectivity index, ratio of IC50 for rat L6 cells to IC50 for bloodstream form of Trypanosoma brucei 427; format: toxicity, cell-based; settings: read-out: Ratio IC50
Trypanosoma cruzi = test: Trypanocidal activity against epimastigote form of Trypanosoma cruzi CL Brener assessed as reduction in parasitic growth after 4 days by Alamar blue assay; format: functional; settings: 96 h
[2] = Selectivity index, ratio of IC50 for rat L6 cells to IC50 for epimastigote form of Trypanosoma cruzi CL Brener; format: toxicity, cell-based; settings: read-out: Ratio IC50
[3] = Rattus norvegicus, L6, 144 h, read-out: IC50

SMILES | IC50 (Trypanosoma brucei) | IC90 (Trypanosoma brucei) | IC50 (L6; [3]) | selectivity ratio [1] | IC50 (Trypanosoma cruzi) | IC90 (Trypanosoma cruzi) | selectivity ratio [2] | IC50 (L6; l6)
O=C(CC1C2CC3CC(C2)CC1C3)N/N=C/c1ccc([N+](=O)[O-])o1 (stereo unspecified) | 126 nM | 207 nM | 3260 nM | 26 | 202 nM | 381 nM | 16 | 
O=C(CCC12CC3CC(CC(C3)C1)C2)N/N=C/c1ccc([N+](=O)[O-])o1 | 386 nM | 560 nM | 16000 nM | 41 | 348 nM | 719 nM | 56 | 
O=C(CCC12CC3CC(CC(C3)C1)C2)N/N=C/c1ccco1 | > 30000 nM | > 30000 nM | > 30000 nM |  | 6090 nM | 15700 nM |  | 
O=C(N/N=C/c1ccc([N+](=O)[O-])o1)C12CC3CC(CC(C3)C1)C2 | 851 nM | 1040 nM | 7720 nM | 9 | 561 nM | 992 nM | 14 | 
O=C(CCC1C2CC3CC(C2)CC1C3)N/N=C/c1ccc([N+](=O)[O-])o1 (stereo unspecified) | 122 nM | 177 nM | 2380 nM | 20 | 206 nM | 513 nM | 12 | 
O=C(N/N=C/c1ccco1)C12CC3CC(CC(C3)C1)C2 | > 35000 nM | > 35000 nM | > 35000 nM |  | > 35000 nM | > 35000 nM |  | 
O=C(CC12CC3CC(CC(C3)C1)C2)N/N=C/c1ccco1 | > 35000 nM | > 35000 nM | > 35000 nM |  | > 35000 nM | > 35000 nM |  | 
O=C(CC12CC3CC(C1)CC(c1ccccc1)(C3)C2)N/N=C/c1ccc([N+](=O)[O-])o1 | 221 nM | 573 nM | 5020 nM | 23 | 91 nM | 180 nM | 55 | 
O=C(N/N=C/c1ccc([N+](=O)[O-])o1)C12CC3CC(C1)CC(C(=O)N/N=C/c1ccc([N+](=O)[O-])o1)(C3)C2 | 75 nM | 98 nM |  |  | > 2000 nM | > 2000 nM |  | ND(Insoluble)
O=C(N/N=C/c1ccc([N+](=O)[O-])o1)C12CC3CC(C1)CC(C1CCCC1)(C3)C2 | 216 nM | 425 nM | 11000 nM | 51 | 225 nM | 528 nM | 49 | 
O=C(CC12CC3CC(CC(C3)C1)C2)N/N=C/c1ccc([N+](=O)[O-])o1 | 242 nM | 553 nM | 3170 nM | 13 | 205 nM | 568 nM | 15 | 
O=C(CCC12CC3CC(C1)CC(C1CCCC1)(C3)C2)N/N=C/c1ccc([N+](=O)[O-])o1 | 158 nM | 322 nM | 4600 nM | 29 | 140 nM | 803 nM | 33 | 
CCOC(=O)CC12CC3CC(CC(CC(=O)N/N=C/c4ccc([N+](=O)[O-])o4)(C3)C1)C2 | 223 nM | 643 nM | 7490 nM | 34 | 204 nM | 478 nM | 32 | 
O=C(CC12CC3CC(C1)CC(C1CCCC1)(C3)C2)N/N=C/c1ccc([N+](=O)[O-])o1 | 306 nM | 459 nM | 8790 nM | 29 | 178 nM | 329 nM | 49 | 
O=C(N/N=C/c1ccc([N+](=O)[O-])o1)C12CC3CC(C1)CC(c1ccccc1)(C3)C2 | 244 nM | 406 nM | 11400 nM | 47 | 368 nM | 676 nM | 31 | 
O=C(N/N=C/c1ccc([N+](=O)[O-])o1)C1C2CC3CC(C2)CC1C3 (stereo unspecified) | 231 nM | 599 nM | 19200 nM | 83 | 844 nM | 1960 nM | 23 | 
O=C(CCC12CC3CC(C1)CC(c1ccccc1)(C3)C2)N/N=C/c1ccc([N+](=O)[O-])o1 | 90 nM | 167 nM | 4590 nM | 51 | 238 nM | 654 nM | 17 | 
